Calls of active or inactive are those of the source. The rule behind the calls is not given here.
Tested on: CCRIS mutagenicity, Ames/micronucleus/aberration tests
Test: CCRIS mutagenicity studies
[1] = Test System: AMES SALMONELLA TYPHIMURIUM, Strain/Indicator: TA98, Metabolic Activation: NONE, Method: PREINCUBATION
[2] = Test System: AMES SALMONELLA TYPHIMURIUM, Strain/Indicator: TA100, Metabolic Activation: NONE, Method: PREINCUBATION
[3] = Test System: AMES SALMONELLA TYPHIMURIUM, Strain/Indicator: TA1535, Metabolic Activation: NONE, Method: PREINCUBATION
[4] = Test System: AMES SALMONELLA TYPHIMURIUM, Strain/Indicator: TA1537, Metabolic Activation: NONE, Method: PREINCUBATION
[5] = Test System: AMES SALMONELLA TYPHIMURIUM, Strain/Indicator: TA98, Metabolic Activation: NONE, Method: STANDARD PLATE
[6] = Test System: AMES SALMONELLA TYPHIMURIUM, Strain/Indicator: TA100, Metabolic Activation: NONE, Method: STANDARD PLATE

CCCCOCCOC(=O)COc1ccc(Cl)cc1Cl
mutagenic call [1]: inactive; negative
mutagenic call (Test System: AMES SALMONELLA TYPHIMURIUM, Strain/Indicator: TA98, Metabolic Activation: RAT LIVER S-9, AROCLOR 1254, 10%, Method: PREINCUBATION): inactive; negative
mutagenic call [2]: inactive; negative
mutagenic call (Test System: AMES SALMONELLA TYPHIMURIUM, Strain/Indicator: TA100, Metabolic Activation: RAT LIVER S-9, AROCLOR 1254, 10%, Method: PREINCUBATION): inactive; negative
mutagenic call [3]: inactive; negative
mutagenic call (Test System: AMES SALMONELLA TYPHIMURIUM, Strain/Indicator: TA1535, Metabolic Activation: RAT LIVER S-9, AROCLOR 1254, 10%, Method: PREINCUBATION): inactive; negative
mutagenic call [4]: inactive; negative
mutagenic call (Test System: AMES SALMONELLA TYPHIMURIUM, Strain/Indicator: TA1537, Metabolic Activation: RAT LIVER S-9, AROCLOR 1254, 10%, Method: PREINCUBATION): inactive; negative
mutagenic call (Test System: UDS RAT HEPATOCYTES, Strain/Indicator: THYMIDINE INCORPORATION, Metabolic Activation: NONE, Method: AUTORADIOGRAPHY): inactive; negative

c1ccc2nc3ccccc3cc2c1
mutagenic call (Test System: AMES SALMONELLA TYPHIMURIUM, Strain/Indicator: TA97, Metabolic Activation: NONE, Method: STANDARD PLATE): inactive; negative
mutagenic call (Test System: AMES SALMONELLA TYPHIMURIUM, Strain/Indicator: TA97, Metabolic Activation: RAT, LIVER, S-9, AROCLOR 1254, Method: STANDARD PLATE): inactive; negative
mutagenic call [5]: inactive; negative
mutagenic call (Test System: AMES SALMONELLA TYPHIMURIUM, Strain/Indicator: TA98, Metabolic Activation: RAT, LIVER, S-9, AROCLOR 1254, Method: STANDARD PLATE): inactive; negative
mutagenic call [6]: inactive; negative
mutagenic call (Test System: AMES SALMONELLA TYPHIMURIUM, Strain/Indicator: TA100, Metabolic Activation: RAT, LIVER, S-9, AROCLOR 1254, Method: STANDARD PLATE): inactive; negative
mutagenic call [3]: inactive; negative
mutagenic call (Test System: AMES SALMONELLA TYPHIMURIUM, Strain/Indicator: TA1535, Metabolic Activation: RAT, LIVER, S-9, TETRACHLOROBIPHENYL, Method: PREINCUBATION): inactive; negative
mutagenic call [4]: inactive; negative
mutagenic call (Test System: AMES SALMONELLA TYPHIMURIUM, Strain/Indicator: TA1537, Metabolic Activation: RAT, LIVER, S-9, TETRACHLOROBIPHENYL, Method: PREINCUBATION): active; positive
mutagenic call (Test System: AMES SALMONELLA TYPHIMURIUM, Strain/Indicator: TA1538, Metabolic Activation: NONE, Method: PREINCUBATION): inactive; negative
mutagenic call (Test System: AMES SALMONELLA TYPHIMURIUM, Strain/Indicator: TA1538, Metabolic Activation: RAT, LIVER, S-9, TETRACHLOROBIPHENYL, Method: PREINCUBATION): inactive; negative

CC(C)(C)OOC1(C)C=C(C(C)(C)C)C(=O)C(C(C)(C)C)=C1
mutagenic call [1]: inactive; negative
mutagenic call (Test System: AMES SALMONELLA TYPHIMURIUM, Strain/Indicator: TA98, Metabolic Activation: RAT, LIVER, S-9, Method: PREINCUBATION): inactive; negative
mutagenic call [2]: inactive; negative
mutagenic call (Test System: AMES SALMONELLA TYPHIMURIUM, Strain/Indicator: TA100, Metabolic Activation: RAT, LIVER, S-9, Method: PREINCUBATION): inactive; negative

C[C@]12CC[C@@H]3c4ccc(O)c(O)c4CC[C@H]3[C@@H]1CC[C@@H]2O
mutagenic call (Test System: Ames Salmonella Typhimurium, Strain/Indicator: TA98, Metabolic Activation: None, Method: Standard plate): inactive; negative
mutagenic call (Test System: Ames Salmonella Typhimurium, Strain/Indicator: TA98, Metabolic Activation: Rat, liver, S-9 (0.5 ml), Method: Standard plate): inactive; negative
mutagenic call (Test System: Ames Salmonella Typhimurium, Strain/Indicator: TA100, Metabolic Activation: None, Method: Standard plate): inactive; negative
mutagenic call (Test System: Ames Salmonella typhimurium, Strain/Indicator: TA100, Metabolic Activation: Rat, liver, S-9, Method: Standard plate): inactive; negative

CC[C@@]1(O)C(=O)OCc2c1cc1n(c2=O)Cc2cc3ccccc3nc2-1
mutagenic call (End Point: In vitro micronucleus, Test System: Human lymphoblastoid TK6 cells, Metabolic Activation: None): active; positive (no dose response; toxicity may play a role)
mutagenic call (End Point: In vivo micronucleus, Test System: Peripheral blood reticulocytes, Species: Mouse, Strain/Sex: CD2F1, Route: Oral): active; positive
mutagenic call (End Point: In vivo micronucleus, Test System: Peripheral blood reticulocytes, Species: Mouse, Strain/Sex: Muta Mouse, Route: Oral): active; positive
mutagenic call (Test System: CHINESE HAMSTER V-79, Strain/Indicator: V-79 (HPRT)/6-THIOGUANINE, Metabolic Activation: NONE): active; positive
mutagenic call (Test System: LacZ plasmid mouse (C57BL/6J transgenic), Strain/Indicator: LacZ Mutant frequency, Method: Bone marrow and liver harvested 35 days after last dose): inactive; negative
mutagenic call (Test System: LacZ transgenic mouse (Muta Mouse), Strain/Indicator: LacZ Mutant frequency, Method: Bone marrow and liver harvested 35 days after last dose): inactive; negative
mutagenic call (Test System: LacZ transgenic mouse (Muta Mouse), Strain/Indicator: LacZ Mutant frequency, Method: Liver and kidney harvested 37 days after last dose): inactive; negative

COC(=O)/C=C/c1ccc([N+](=O)[O-])o1
mutagenic call [1]: active; positive

CC1CNC(=O)N1c1ncc([N+](=O)[O-])s1 (centres undefined)
mutagenic call [5]: active; positive
mutagenic call [6]: active; positive
